Data on 7 compounds can be found in patent publication US20100068302A1, “METHODS AND COMPOSITIONS FOR THE TREATMENT OF CANCER” (TRASLATIONAL CANCER DRUGS PHARMA, S.L., priority 2008, published 2010).

Data set [1] has as its system primary cultures of resected NSCLC tumours. The experiment in a line: Primary cultures of NSCLC tumours treated 10 days, Cristal Violet quantification. It counts as cell-based, human. Particulars: for RESISTANT (% of samples) / RESISTANT (number of tumour samples) / SENSITIVES (% of samples) / SENSITIVES (number of tumour samples): primary NSCLC tumour cultures, 0-20 μM, 10 days. The source says:
Specimens of lung cancer tissue from 84 randomly selected patients who underwent surgical resection of NSCLC between 2001 and 2004 and that were followed up by The Medical Oncology division at La Paz Hospital in Madrid were used for this analysis. No adjuvant therapy was administrated to these patients. The study was approved by the institutional review board of the hospitals, and written informed consent was obtained from all patients.
Resected tissues from NSCLC patients were dissociated (Cell dissociation sieve-tissued grinder Kit CD1, SIGMA), and the obtained cells were seeded in 24 well plates (BD, Falcon, Bioscience, San Jose, Calif., USA). […] The final persistent population in each well was quantified by the method of Cristal Violet as previously described (Rodríguez-González, A. et al., Oncogene, 22:8803-8812). […]

The test system of data set [2] is Human primary bronchial epithelial cells, NHBE (BEC). The experiment in a line: Cell proliferation assay (MTT), Primary BEC. It counts as cell-based. The protocol: (§1) All cell lines used in this study were maintained under standard conditions of temperature (37° C.), humidity (95%), and carbon dioxide (5%). Human primary bronchial epithelial cells, NHBE (BEC) (Cambrex, CC-2541) were grown in BEGM (Bronchial Epithelial cell growth media) BulletKit (Cambrex, CC-3170). Human primary mammary epithelial cells, HMEC (Clonetics, CC-2551) were grown in MEBM medium supplemented with a bullet kit (Clonetics, CC-3150). Epithelial non-small lung cancer cells H460 and H1299, and small cell lung cancer cell lines H510 and H82 were maintained in RPMI supplemented with 10% Fetal Bovine Serum (FBS) (Life Technologies, Grand Island, N.Y.).
(§2) Cells were seeded on 96-well plates (B D, Falcon, Bioscience, San Jose, Calif., USA) at a density of 6000 cells/well, and incubated for 24 h under standard conditions. […] Absorbance is read at 595 nm in a VersaMax Microplate Reader (Molecular Devices, Sunnyvale, Calif., USA). For sensitization with acid ceramidase inhibitor, cells were pre-treated 4 hours with the correspondent IC50 for NOE before treatment with ChoK inhibitors. NOE (N-Oleoyl ethanolamine) was obtained from Calbiochem (La Jolla, Calif., USA).

Data set [3] relates to Human primary mammary epithelial cells, HMEC. The experiment in a line: Cell proliferation assay (MTT), Primary HMEC. The format is cell-based. The protocol:
as §1, §2

Data set [4] has as its system H1299 non-small lung cancer cells. Kind of data set: Cell proliferation assay (MTT), H1299. Particulars: Homo sapiens. It counts as cell-based. The protocol: as §1, §2
Data set [5] deals with H460 non-small lung cancer cells. Kind of data set: Cell proliferation assay (MTT), H460. It counts as cell-based, human.
In data set [6] the test system is H510 small cell lung cancer cells. The experiment in a line: Cell proliferation assay (MTT), H510. The format is cell-based. Particulars: Homo sapiens. The protocol: as §1, §2
Data set [7] has as its system H82 small cell lung cancer cells. Kind of data set: Cell proliferation assay (MTT), H82. It counts as cell-based. The conditions noted are these: Homo sapiens. The protocol: as §1, §2
The test system of another data set is H460stock cells. Kind of data set: Cell proliferation assay (MTT), H460stock control line. The format is cell-based, human. The protocol: (§3) Cell lines resistant to MN58b and RSM-932A (identified as MN58R and RSM-932A-R, respectively) were generated by prolonged continuous exposure to increasing concentrations of each drug. A parallel control (H460 stock) of the cell line in the absence of the compounds was kept in culture for the same time.
as §2, with “conditions. Then, cells were treated with different concentrations of the ChoK inhibitors (quadruplicates of each concentration) and maintained for 72 hours.” for “conditions.”
(§4) To further study the mechanism underlying resistance to ChoK inhibition, as well as the implication of acid ceramidase in this effect, we used the human NSCLC-derived H460 cell line for a set of in vitro experiments. […]

The subject of a further data set is H460 MN58R cells. Kind of data set: Cell proliferation assay (MTT), H460 line resistant to MN58b. It counts as cell-based, human. The protocol: as §3
as §2, with “conditions. Then, cells were treated with different concentrations of the ChoK inhibitors (quadruplicates of each concentration) and maintained for 72 hours.” for “conditions.”
as §4

The test system of the next data set is H460 RSM-932AR cells. Kind of data set: Cell proliferation assay (MTT), H460 line resistant to RSM-932A. The format is cell-based, human. The protocol:
as §3
as §2, with “conditions. Then, cells were treated with different concentrations of the ChoK inhibitors (quadruplicates of each concentration) and maintained for 72 hours.” for “conditions.”
as §4

In a further data set the test system is H460 cells. Kind of data set: Combination index assay (Chou Talalay) cisplatin plus ChoK inhibitors. It counts as cell-based, human. The conditions noted are these: cisplatin 3 h followed by 40 h of ChoK inhibitor, CI<1 synergistic, CIs<0.5 strong synergistic. The protocol:
All experiments were performed in quadruplicate.

Data set [8] relates to DLD-1 colon cancer derived cells. Kind of data set: MTT cytotoxicity, ChoKI and TRAIL, DLD-1. The conditions noted are these: DLD-1, drug alone. An excerpt:
(§5) To that end, five colon cancer derived cell lines were used: DLD-1, HT-29, HCT-116, SW620 and SW480.

The subject of data set [9] is HT-29 colon cancer derived cells. The experiment in a line: MTT cytotoxicity, ChoKI and TRAIL, HT-29. Particulars: HT-29, drug alone.
Source text: as §5

The test system of data set [10] is SW620 colon cancer derived cells. Kind of data set: MTT cytotoxicity, ChoKI and TRAIL, SW620. The conditions noted are these: SW620 (FIG. 7B).
Source text: as §5

Data set [11] concerns DLD-1, HT-29, HCT-116, SW620 and SW480. Kind of data set: MTT sensitivity in five colon cancer derived cell lines. The format is cell-based. The conditions noted are these: five colon cancer derived cell lines (FIG. 7).
Source text: as §5

[12] abbreviates: of 84 patients, nearly 100% of cells alive at 20 μM at day 10.
The mark [13] stands for this setting: Homo sapiens, NCI-H460, 72 h, H460, single agent (Table 7), read-out: IC50 72 h.
Where [14] appears, read: Homo sapiens, NCI-H460, read-out: IC50.

Values joined by “and” are separate entries in the source; they are usually repeats but may differ in a detail not shown here. Equal entries are not always repeated. Where two headings read alike, the source gives them in different places.

`Nc1ccn([C@@H]2O[C@H](CO)[C@@H](O)C2(F)F)c(=O)n1` [Gemcitabine]: in data set [1], the “RESISTANT (% of samples)” value was determined as 65.4%, the “RESISTANT (number of tumour samples)” value is 34, the “SENSITIVES (% of samples)” value is 34.6% and the “SENSITIVES (number of tumour samples)” value was found to be 18.
In the case of `CN(C)c1cc[n+](Cc2ccc(CCCCc3ccc(C[n+]4ccc(N(C)C)cc4)cc3)cc2)cc1` [MN58b, 1,4-(4-4′-Bis-((4-(dimethylamine)pyridinium-1-yl)methyl)diphenyl)butane dibromide], in data set [1] (among the 45 sensitive tumours), the “samples highly sensitive (%)” value was 33.3%. Besides, the “samples partially sensitive (%)” value in data set [1] (among the 45 sensitive tumours) amounted to 66.7%. The “samples partially sensitive (number)” value in [1] (among the 45 sensitive tumours, around 50% of cells alive at end of treatment) turned out to be 30. Also, the “samples highly sensitive (number)” value in data set [1] (among the 45 sensitive tumours, viability abolished at low concentrations, day 10) is on record as 15. Further, the “tumours sensitive to the antiproliferative effect (%)” value in [1] (of 84 patients, day 10) is on record as 53.6%. In data set [1] (of 84 patients, day 10), the “tumours sensitive to the antiproliferative effect (number)” value came to 45. Moreover, the “samples fully resistant (%)” value in data set [1] (setting [12]) is on record as 46,4%. In data set [1] (setting [12]), the “samples fully resistant (number)” value turned out to be 39. In [1], the “RESISTANT (% of samples)” value is on record as 44.4%. Besides, the “RESISTANT (number of tumour samples)” value in data set [1] turned out to be 28. For the same compound, the “SENSITIVES (% of samples)” value in [1] is 55.5% and 55%. Further, the “SENSITIVES (number of tumour samples)” value in data set [1] is recorded as 35. Moreover, the IC50 is 40500 ± 6200 nM in data set [2] (48 h, read-out: IC50 48 h); 18300 ± 4800 nM in [2] (72 h, read-out: IC50 72 h); 4200 ± 800 nM in data set [2] (144 h, read-out: IC50 144 h); 44700 ± 4950 nM in data set [3] (48 h, read-out: IC50 48 h); 20900 ± 2700 nM in [3] (72 h, read-out: IC50 72 h); 3400 ± 130 nM in data set [3] (144 h, read-out: IC50 144 h). Further, the IC50 in data set [4] (NCI-H1299, 48 h, read-out: IC50 48 h) was 10300 ± 2500 nM; in data set [4] (NCI-H1299, 72 h, read-out: IC50 72 h) it was 2700 ± 700 nM; in [4] (NCI-H1299, 144 h, read-out: IC50 144 h) it was 900 ± 100 nM; in data set [5] (Homo sapiens, NCI-H460, 48 h, H460, 48 h, read-out: IC50 48 h) it was 7030 ± 2030 nM; in data set [5] (Homo sapiens, NCI-H460, 72 h, H460, 72 h (Table 6), read-out: IC50 72 h) it was 2600 ± 800 nM; in [5] (setting [13]), 280 nM. The IC50 in data set [5] (Homo sapiens, NCI-H460, 144 h, H460, 144 h, read-out: IC50 144 h) turned out to be 1100 ± 100 nM; in data set [5] (Homo sapiens, NCI-H460, H460 (Table 8), read-out: IC50) it was 280 nM; in data set [6] (NCI-H510, 48 h, read-out: IC50 48 h), 1100 ± 100 nM; in data set [6] (NCI-H510, 72 h, read-out: IC50 72 h), 400 ± 50 nM; in data set [6] (NCI-H510, 144 h, read-out: IC50 144 h) it was 100 ± 30 nM; in data set [7] (H82, 48 h, read-out: IC50 48 h) it was 1900 ± 200 nM. For the same compound, the IC50 in data set [7] (H82, 72 h, read-out: IC50 72 h) amounted to 800 ± 40 nM; in data set [7] (H82, 144 h, read-out: IC50 144 h), 270 ± 10 nM; in the data set with H460stock cells (Homo sapiens, read-out: IC50), 390 nM; in the data set on H460 MN58R cells (setting [14]) it was 19200 nM; in the data set with H460 RSM-932AR cells (setting [14]) it was 28800 nM. In the data set on H460 cells, the “Combination index (CI) with cisplatin” value was determined as 0.1.
`CCCCCCCC/C=C\CCCCCCCC(=O)NCCO` [NOE, N-oleoylethanolamine, reference compound]: the IC50 in data set [5] (setting [13]) turned out to be 32500 nM.
On to `CC(=O)O[C@H]1C(=O)[C@@]2(C)[C@H]([C@H](OC(=O)c3ccccc3)[C@]3(O)C[C@H](OC(=O)[C@H](O)[C@@H](NC(=O)c4ccccc4)c4ccccc4)C(C)=C1C3(C)C)[C@]1(OC(C)=O)CO[C@@H]1C[C@@H]2O` [Taxol], for which, in [1], the “RESISTANT (% of samples)” value was 56.5%, the “RESISTANT (number of tumour samples)” value amounted to 35, the “SENSITIVES (% of samples)” value is 43.5% and the “SENSITIVES (number of tumour samples)” value was 27.
The matching figures for `CCC1=C[C@@H]2CN(C1)Cc1c([nH]c3ccccc13)[C@@](C(=O)OC)(c1cc3c(cc1OC)N(C)[C@H]1[C@@](O)(C(=O)OC)[C@H](OC(C)=O)[C@]4(CC)C=CCN5CC[C@]31[C@@H]54)C2` [Vinolrelbine, vinorelbine]: 61.5%, 24, 38.5% and 15.
For the compound `[NH2][Pt]([NH2])([Cl])[Cl]` [cDDP, cisplatin, reference compound], in [1], the “RESISTANT (% of samples)” value was 50%, the “RESISTANT (number of tumour samples)” value was found to be 31, the “SENSITIVES (% of samples)” value came out at 50% and the “SENSITIVES (number of tumour samples)” value turned out to be 31. The “IC50” value in data set [5] (H460) worked out at 5 µg/mL. The “IC50” value in the data set with H460stock cells turned out to be 4.5 µg/mL. For the same compound, the “IC50” value with H460 MN58R cells turned out to be 2 µg/mL. In addition, the “IC50” value with H460 RSM-932AR cells came to 1.5 µg/mL.
For “TRAIL: extracellular domain of human TRAIL (amino acids 95-281)”, the “cytotoxicity, percentage of cell death” value in [8] worked out at 12%. The compound further registered a cytotoxicity in data set [9] of 18%. Also, the sensitivity to treatment result in data set [10] is on record as “nearly resistant”. The “sensitivity across the cell lines” value in data set [11] was “very similar for all cell lines except for SW620”.
